Laboratory results: ChEMBL document CHEMBL1201862, “PubChem BioAssay data set” (2004)
Active and inactive are the calls of the source.

Columns and labels:
[1] = Luminescence Cell-Based Dose Response HTS to Identify Inhibitors of 5'UTR Stem-Loop Driven Prion Protein mRNA Translation in H4 Neuroglioblastoma Cells. [Related pubchem assays: 1827 (Project Summary), 1813 (Primary HTS)]; type: functional
[2] = target: T1, Corticotropin-releasing factor receptor 2/Corticotropin-releasing factor-binding protein (Homo sapiens, UniProt P24387+Q13324); test: activators of CRF receptor 2 with binding protein – uHTS hits, confirmation (AID 602473); type: functional; conditions: read-out: EC50_Mean
T1 sequence (Q13324 whole entry): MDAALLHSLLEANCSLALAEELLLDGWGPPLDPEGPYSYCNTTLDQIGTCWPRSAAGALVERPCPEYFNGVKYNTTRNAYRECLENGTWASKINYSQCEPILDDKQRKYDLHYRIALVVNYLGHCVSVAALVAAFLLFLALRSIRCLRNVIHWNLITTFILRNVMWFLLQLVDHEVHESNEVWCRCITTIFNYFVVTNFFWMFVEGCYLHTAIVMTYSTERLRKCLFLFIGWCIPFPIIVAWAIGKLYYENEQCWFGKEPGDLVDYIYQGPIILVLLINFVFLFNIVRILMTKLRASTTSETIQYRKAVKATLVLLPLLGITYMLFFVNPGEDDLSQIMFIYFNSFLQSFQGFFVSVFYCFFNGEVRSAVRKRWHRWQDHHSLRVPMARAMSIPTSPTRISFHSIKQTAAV
T1 sequence (P24387 whole entry): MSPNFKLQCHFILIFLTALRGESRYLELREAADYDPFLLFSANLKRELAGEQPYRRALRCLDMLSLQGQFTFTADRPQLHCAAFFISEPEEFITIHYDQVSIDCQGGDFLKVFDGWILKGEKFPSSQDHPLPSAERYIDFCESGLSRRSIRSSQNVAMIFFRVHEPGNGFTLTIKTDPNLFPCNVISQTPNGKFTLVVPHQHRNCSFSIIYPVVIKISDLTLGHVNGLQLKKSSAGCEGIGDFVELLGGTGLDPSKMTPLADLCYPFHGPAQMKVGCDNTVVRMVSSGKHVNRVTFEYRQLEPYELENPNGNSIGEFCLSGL

[3] = alpha-synuclein stem-loop luciferase translation blockers – H4 neuroglioma cells, luminescence, confirmation (AID 1988); type: functional, cell-based
[4] = luciferase reporter signal suppression in cells – H4 neuroglioma cells, luminescence, dose response (AID 1990); type: functional, cell-based
[5] = target: T1, Corticotropin-releasing factor receptor 2/Corticotropin-releasing factor-binding protein; test: Dose Response confirmation of uHTS hits for small molecule antagonists of the CRF-binding protein and CRF-R2 receptor complex.; type: functional; conditions: read-out: IC50_Mean
[6] = viability of PTEN-deleted HCT116 cells – cell-based, HCT116 PTEN knockout, dose response (AID 1047); type: functional;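 further: HCT116 colon tumor cells with PTEN knocked out; cells exposed to compound for 60 hours before readout; potency for loss of cell viability measured by luminescence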
[7] = viability of HCT116 lacking mutant beta-catenin – cell-based, human colon tumor, dose response (AID 1045); type: functional;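 further: HCT116 colon tumor cells with beta catenin knocked out; cells exposed to compound for 60 hours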
INS1 = test: INS-1E survival protection against cytokine death – cell-based, luminescence, retest, dose response (AID 449756); type: functional; conditions: Rattus norvegicus;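 further: cell death triggered by IL-1 beta plus TNF-alpha plus IFN-gamma mixture; protective hits raise ATP signal compared with cytokine alone wells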
Vero = test: cells; type: functional; conditions: Chlorocebus sabaeus
[8] = target: T2, Polyadenylate-binding protein 1 (Homo sapiens, UniProt P11940); test: MLLE domain peptide-binding blockers, IC50 – biochemical, fluorescence polarization, FITC-PAM2 peptide, dose response (AID 602259); type: functional; conditions: read-out: IC50_Mean
T2 sequence (P11940 whole entry, the tested form may be a part): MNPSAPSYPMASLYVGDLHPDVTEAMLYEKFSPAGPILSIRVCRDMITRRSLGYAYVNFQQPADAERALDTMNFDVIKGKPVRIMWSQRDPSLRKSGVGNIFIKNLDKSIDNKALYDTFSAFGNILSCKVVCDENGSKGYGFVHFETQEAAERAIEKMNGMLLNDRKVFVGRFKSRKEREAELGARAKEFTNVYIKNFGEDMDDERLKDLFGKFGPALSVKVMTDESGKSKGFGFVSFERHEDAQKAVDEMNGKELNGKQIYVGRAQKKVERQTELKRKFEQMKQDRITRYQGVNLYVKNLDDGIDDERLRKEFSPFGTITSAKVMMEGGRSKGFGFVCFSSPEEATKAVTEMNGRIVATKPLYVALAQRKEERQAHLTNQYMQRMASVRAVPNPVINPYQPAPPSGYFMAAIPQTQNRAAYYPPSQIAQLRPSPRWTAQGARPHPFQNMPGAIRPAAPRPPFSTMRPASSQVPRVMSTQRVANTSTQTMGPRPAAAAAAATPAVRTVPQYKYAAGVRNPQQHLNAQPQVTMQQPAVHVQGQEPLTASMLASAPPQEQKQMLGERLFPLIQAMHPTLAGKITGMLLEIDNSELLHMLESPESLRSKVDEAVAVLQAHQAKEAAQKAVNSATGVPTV

[9] = target: T2, Polyadenylate-binding protein 1; test: MLLE binding blockers, Cy5 peptide tracer – biochemical, fluorescence polarization, Cy5-PAM2 peptide, secondary, miRNA deadenylation inhibitor project, dose response (AID 602260); type: functional; conditions: read-out: IC50_Mean
Cytochrome P450 2C9 = Cytochrome P450 2C9 (Homo sapiens, UniProt P11712)
Cytochrome P450 2C9, sequence (P11712 whole entry): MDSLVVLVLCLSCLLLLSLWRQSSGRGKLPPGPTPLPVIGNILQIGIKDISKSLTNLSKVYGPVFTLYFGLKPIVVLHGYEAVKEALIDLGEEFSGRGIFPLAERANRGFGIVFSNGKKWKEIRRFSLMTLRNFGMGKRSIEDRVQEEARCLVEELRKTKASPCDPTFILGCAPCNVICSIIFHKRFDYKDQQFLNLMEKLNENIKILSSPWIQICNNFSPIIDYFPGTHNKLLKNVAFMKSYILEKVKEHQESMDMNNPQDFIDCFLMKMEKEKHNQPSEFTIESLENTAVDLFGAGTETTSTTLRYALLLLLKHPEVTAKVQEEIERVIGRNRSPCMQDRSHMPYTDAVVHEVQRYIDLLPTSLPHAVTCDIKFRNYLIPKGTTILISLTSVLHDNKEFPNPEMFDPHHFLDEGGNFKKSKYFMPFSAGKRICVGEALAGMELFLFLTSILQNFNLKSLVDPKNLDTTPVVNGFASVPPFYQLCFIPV

Streptococcus = test: GAS UMAA2166 growth inhibition – luminescence, BacTiterGlo, counter-screen for streptokinase expression inhibitor project, dose response (AID 1915); type: functional, organism-based;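 further: potency for reduction of bacterial viability or growth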
[10] = system: Streptococcus sp. 'group A'; test: Streptococcus pyogenes SK(-)GAS viability under kanamycin – luminescence, BacTiterGlo, confirmation, counter-screen for streptokinase expression inhibitor project, dose response (AID 1900); type: functional, organism-based
Streptokinase A = target: T3, Streptokinase A (Streptococcus pyogenes serotype M1, UniProt P10520); test: viability-normalized secreted streptokinase activity reduction – plasminogen activation absorbance, OD405, dose response (AID 1914); type: functional, Streptococcus pyogenes M1 GAS;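 further: secreted streptokinase activity via plasminogen activation per viability signal from cell pellet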
T3 sequence (P10520 whole entry): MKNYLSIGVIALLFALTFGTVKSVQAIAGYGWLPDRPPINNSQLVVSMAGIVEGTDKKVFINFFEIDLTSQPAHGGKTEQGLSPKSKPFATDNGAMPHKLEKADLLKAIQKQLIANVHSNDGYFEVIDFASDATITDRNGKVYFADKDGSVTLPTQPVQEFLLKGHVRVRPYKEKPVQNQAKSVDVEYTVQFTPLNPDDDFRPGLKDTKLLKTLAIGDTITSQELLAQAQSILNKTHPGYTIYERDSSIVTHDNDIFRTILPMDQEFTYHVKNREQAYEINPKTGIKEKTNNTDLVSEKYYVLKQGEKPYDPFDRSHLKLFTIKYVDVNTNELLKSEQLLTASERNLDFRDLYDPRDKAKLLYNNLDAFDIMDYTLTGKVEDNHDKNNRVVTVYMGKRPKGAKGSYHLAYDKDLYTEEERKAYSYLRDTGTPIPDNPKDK

Cytochrome P450 1A2 = target: T4, Cytochrome P450 1A2 (Homo sapiens, UniProt P05177);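 further: PubChem cytochrome P450 panel assay, CYP1A2 panel member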
T4 sequence (P05177 whole entry): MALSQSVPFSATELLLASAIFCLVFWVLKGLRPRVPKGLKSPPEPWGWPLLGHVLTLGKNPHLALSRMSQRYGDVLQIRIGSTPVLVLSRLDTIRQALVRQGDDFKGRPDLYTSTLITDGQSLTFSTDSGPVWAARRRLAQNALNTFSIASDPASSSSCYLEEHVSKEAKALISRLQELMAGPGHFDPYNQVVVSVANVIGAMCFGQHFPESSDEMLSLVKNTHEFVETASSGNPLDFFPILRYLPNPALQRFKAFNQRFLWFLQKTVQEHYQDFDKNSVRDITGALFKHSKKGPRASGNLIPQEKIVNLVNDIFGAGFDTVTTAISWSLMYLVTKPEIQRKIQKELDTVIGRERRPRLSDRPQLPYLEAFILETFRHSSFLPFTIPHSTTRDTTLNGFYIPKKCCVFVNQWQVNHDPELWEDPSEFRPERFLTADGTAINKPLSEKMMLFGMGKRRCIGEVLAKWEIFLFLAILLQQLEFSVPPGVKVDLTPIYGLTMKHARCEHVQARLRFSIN

[11] = Luminescence Cell-Based Dose Retest to Confirm Inhibitors of Cancer Stem Cells. [Related pubchem assays (depositor defined):AID2717, AID2721]; type: functional; conditions: Homo sapiens
Cytochrome P450 2D6 = Cytochrome P450 2D6 (Homo sapiens, UniProt P10635);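 further: CYP2D6 member of a cytochrome P450 panel assay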
Cytochrome P450 2D6, sequence (P10635 whole entry): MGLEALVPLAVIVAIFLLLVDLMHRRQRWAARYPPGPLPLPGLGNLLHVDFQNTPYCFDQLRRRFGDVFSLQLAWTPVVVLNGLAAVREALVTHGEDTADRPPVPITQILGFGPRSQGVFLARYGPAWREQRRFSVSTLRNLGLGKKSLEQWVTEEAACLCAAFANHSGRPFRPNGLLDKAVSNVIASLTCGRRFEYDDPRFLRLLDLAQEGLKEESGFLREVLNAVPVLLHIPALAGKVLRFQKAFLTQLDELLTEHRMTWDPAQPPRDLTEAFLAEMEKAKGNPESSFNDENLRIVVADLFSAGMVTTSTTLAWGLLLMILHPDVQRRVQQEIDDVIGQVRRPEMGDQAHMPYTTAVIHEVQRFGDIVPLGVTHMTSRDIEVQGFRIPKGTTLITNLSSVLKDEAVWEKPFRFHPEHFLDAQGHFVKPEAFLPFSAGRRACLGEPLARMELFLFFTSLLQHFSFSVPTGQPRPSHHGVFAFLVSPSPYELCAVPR

[12] = Luminescence Cell-Based Dose Confirmation HTS to Identify Inhibitors of Platelet Dense Granule Release. [Related pubchem assays: 1663 (Primary HTS), 1678 (Summary of Project)]; type: functional
Cytochrome P450 2C19 = Cytochrome P450 2C19 (Homo sapiens, UniProt P33261); test: Cytochrome panel assay with activity outcomes. Panel member name: p450-cyp2c19 Compounds with AC50 equal or less than 10 uM are considered active; type: functional
Cytochrome P450 2C19, sequence (P33261 whole entry): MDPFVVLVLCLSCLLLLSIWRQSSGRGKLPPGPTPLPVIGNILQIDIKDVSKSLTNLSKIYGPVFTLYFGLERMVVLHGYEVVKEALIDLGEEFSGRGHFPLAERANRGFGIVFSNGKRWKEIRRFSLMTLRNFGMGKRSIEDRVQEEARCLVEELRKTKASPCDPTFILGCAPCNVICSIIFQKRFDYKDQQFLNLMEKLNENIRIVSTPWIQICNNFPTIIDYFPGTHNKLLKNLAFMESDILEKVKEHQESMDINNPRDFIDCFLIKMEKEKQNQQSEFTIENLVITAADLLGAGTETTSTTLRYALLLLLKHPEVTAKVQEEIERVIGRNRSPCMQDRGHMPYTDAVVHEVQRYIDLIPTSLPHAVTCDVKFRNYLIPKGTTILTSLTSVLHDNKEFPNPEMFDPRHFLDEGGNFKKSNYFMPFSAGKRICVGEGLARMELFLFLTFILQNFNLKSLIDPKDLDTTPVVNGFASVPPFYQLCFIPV

[13] = target: Luciferin 4-monooxygenase (Photinus pyralis, UniProt P08659); test: inhibition of purified Photinus pyralis luciferase – biochemical, luminescence, dose response (AID 1891)
Luciferin 4-monooxygenase, sequence (P08659 whole entry): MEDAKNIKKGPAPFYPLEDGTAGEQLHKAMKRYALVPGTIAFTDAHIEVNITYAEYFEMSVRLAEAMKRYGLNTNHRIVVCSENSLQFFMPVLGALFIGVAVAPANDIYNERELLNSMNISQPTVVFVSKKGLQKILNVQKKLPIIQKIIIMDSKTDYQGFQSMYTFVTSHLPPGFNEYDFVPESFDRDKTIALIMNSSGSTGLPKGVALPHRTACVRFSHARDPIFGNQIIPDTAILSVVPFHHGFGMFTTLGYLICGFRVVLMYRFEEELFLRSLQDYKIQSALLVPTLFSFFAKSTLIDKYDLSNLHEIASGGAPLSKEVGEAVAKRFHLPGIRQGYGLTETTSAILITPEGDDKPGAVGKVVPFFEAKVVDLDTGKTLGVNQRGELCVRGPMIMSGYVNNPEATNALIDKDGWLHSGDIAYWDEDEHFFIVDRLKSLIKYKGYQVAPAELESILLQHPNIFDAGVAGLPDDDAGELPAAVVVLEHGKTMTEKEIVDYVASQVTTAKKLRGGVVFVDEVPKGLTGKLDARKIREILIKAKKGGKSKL

[14] = viability of uninfected HEp-2 cells – cell-based, HTS, cytotoxicity control for RSV inhibitor project, dose response (AID 2410); type: functional; conditions: human respiratory syncytial virus
[15] = non-specific 3'UTR reporter inhibition in Clone20-Shn3RL – cell-based, Renilla luciferase, cherry-picked, counter-screen for Shn3 inhibitor project, dose response (AID 624133); type: functional
[16] = reduction of Shn3 3'UTR-driven luciferase in osteoblasts – cell-based, Clone20 osteoblasts, firefly luciferase, cherry-picked, dose response (AID 624132); type: functional;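 further: firefly luciferase luminescence from reporter carrying the Shn3 3'UTR in osteoblasts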
[17] = target: T5, Heat shock factor protein 1 (Mus musculus, UniProt P38532); test: enhancement of HSF1-driven luciferase signal – cell-based, NIH3T3, luminescence, dose retest, confirmation (AID 435004); type: functional;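 further: stress induced by proteasome inhibitor MG132 added 30 min after compound; luciferase reporter driven by HSF1 response element in NIH3T3 cells; actives raise luminescence as potentiators of the MG132 stress response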
T5 sequence (P38532 whole entry): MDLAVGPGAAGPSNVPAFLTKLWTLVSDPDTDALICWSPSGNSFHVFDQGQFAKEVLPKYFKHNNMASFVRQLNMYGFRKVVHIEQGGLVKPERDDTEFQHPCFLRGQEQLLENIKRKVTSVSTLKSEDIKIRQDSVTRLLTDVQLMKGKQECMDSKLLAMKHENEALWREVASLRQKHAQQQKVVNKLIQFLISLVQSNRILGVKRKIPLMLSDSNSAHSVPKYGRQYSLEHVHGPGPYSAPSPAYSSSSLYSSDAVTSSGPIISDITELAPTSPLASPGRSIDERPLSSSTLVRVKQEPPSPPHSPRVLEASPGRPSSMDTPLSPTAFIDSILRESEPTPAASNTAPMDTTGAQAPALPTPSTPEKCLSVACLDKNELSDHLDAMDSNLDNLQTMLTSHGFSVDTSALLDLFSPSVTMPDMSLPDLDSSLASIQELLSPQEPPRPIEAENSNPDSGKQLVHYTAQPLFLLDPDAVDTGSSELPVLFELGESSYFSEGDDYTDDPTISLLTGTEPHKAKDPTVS

## COCCn1c(SCC(=O)Nc2cccc(C(=O)OC)c2)nc2ccccc2c1=O
[1]
  EC50: > 120 µM (not active)
[2]
  EC50: > 53 µM (inactive)
[3]
  EC50: 15.2 µM (active)
[4]
  EC50: 36.7 µM (active)
[5]
  IC50: > 47.1 µM (inactive)

## O=C(c1cccc(Cl)c1)c1nn(-c2ccccc2)c(=O)cc1C(F)(F)F
[6]
  EC50: 10.6 µM (active)
[7]
  EC50: 12.3 µM (active)
INS1
  AC50: 23.8 µM (active)

## Cn1ncc2c(Nc3ccc(-c4ccccc4)cc3)ncnc21
Vero
  CC50: > 25 µM (active)

## Cc1ccccc1C(=O)Nc1ccc2c(C#N)c3nc4ccccc4nc3n2c1
[6]
  EC50: 6.62 µM (active)
[7]
  EC50: 5.34 µM (active)

## O=[N+]([O-])c1cccc(C(=S)N2CCN(c3ccccc3F)CC2)c1
[8]
  IC50: > 66 µM (inactive)
[9]
  IC50: > 66 µM (inactive)

## CC(C)(C)n1nc2c(c1NC(=O)c1cc3ccccc3o1)CSC2
[8]
  IC50: > 66 µM (inactive)
[9]
  IC50: > 66 µM (inactive)

## COc1ccccc1COC(=O)Nc1c(C)nn(C)c1Cl
Cytochrome P450 2C9
  AC50: inconclusive

## CCc1c(C)sc(NC(=O)c2ccco2)c1C(=O)N1CCOCC1
[8]
  IC50: > 66 µM (inactive)
[9]
  IC50: > 66 µM (inactive)

## O=C(C[n+]1nc(CNc2ccc(Cl)cc2)n2c1CCCCC2)c1ccc(Br)cc1
[2]
  EC50: > 53 µM (inactive)
Streptococcus
  EC50: 84.2 µM (active)
[10]
  EC50: 5.64 µM (active)
[5]
  IC50: > 47.1 µM (inactive)
Streptokinase A
  EC50: 12.5 µM (active)

## O=C1c2cccc3c(Cl)ccc(c23)C(=O)N1O
Cytochrome P450 2C9
  AC50: inconclusive

## CCN(CC)c1ccc(C(=O)OCc2cc(=O)oc3cc(O)ccc23)cc1
Cytochrome P450 1A2
  AC50: 2.24 µM (inconclusive)
[1]
  EC50: > 120 µM (not active)
Streptococcus
  EC50: > 150 µM (not active)
[10]
  EC50: 16.1 µM (active)
[6]
  EC50: 7.3 µM (active)
[3]
  EC50: 10.5 µM (active)
Cytochrome P450 2C9
  AC50: inconclusive
[4]
  EC50: 9 µM (active)
[7]
  EC50: 5.62 µM (active)
Streptokinase A
  EC50: 128 µM (active)
[11]
  AC50: 4.72 µM (active)

## COc1ccc(O)c(C(=O)CC(=O)c2ccccc2C)c1
Streptococcus
  EC50: 49.1 µM (active)
[10]
  EC50: 6.85 µM (active)
Vero
  CC50: 20.4 µM (active)
Streptokinase A
  EC50: > 150 µM (not active)

## Cn1c(Cc2cccc3ccccc23)nnc1SCC(=O)N1CCN(c2ccccc2)CC1
Cytochrome P450 2C9
  AC50: inconclusive

## O=C(NC(=S)Nc1ccc2c(c1)OCCO2)c1ccccc1
[8]
  IC50: > 66 µM (inactive)
[9]
  IC50: > 66 µM (inactive)

## C/C(C[n+]1ccccc1)=N\N=C(N)N
Cytochrome P450 2C9
  AC50: inconclusive

## COc1cc(C(=O)NCc2cccc3ccccc23)cc(Cl)c1OC
Cytochrome P450 2D6
  AC50: 15.8 µM (inconclusive)
Cytochrome P450 2C9
  AC50: inconclusive

## COCCCNC(=O)Cn1nc(-c2ccccc2OC)ccc1=O
[12]
  EC50: > 112 µM (not active)
Cytochrome P450 2C9
  AC50: inconclusive
Cytochrome P450 2C19
  AC50: inconclusive
[13]
  EC50: > 112 µM (not active)

## CSc1nc(C2CC2)cc(-c2cccs2)c1C#N
[14]
  CC50: 11.8 µM (active)
Cytochrome P450 2C9
  AC50: inconclusive
Cytochrome P450 2C19; read-out: AC50
  AC50: 1.26 µM (inconclusive)

## CCCc1ccc(C(=O)NNc2cc(Cl)ccc2Cl)cc1
[15]
  AC50: 10.1 µM (active)
[16]
  AC50: 2.59 µM (active)

## O=C(NCC(c1ccco1)N1CCCCC1)c1ccc(COc2ccc(Cl)cc2)cc1 (stereo not drawn)
Vero
  CC50: > 25 µM (active)

## CCCc1nnc(NC(=O)CN2C(=O)C3C4C=CC(C4)C3C2=O)s1 (stereo not drawn)
Cytochrome P450 2C9
  AC50: inconclusive
Cytochrome P450 2C19; read-out: AC50
  AC50: 17.8 µM (inconclusive)

## Nc1nc(N)c(/C=N/c2ccc(Br)cc2)c(Nc2ccc(Br)cc2)n1
Streptococcus
  EC50: 3.09 µM (active)
[10]
  EC50: 1.11 µM (active)
Vero
  CC50: > 25 µM (active)
[17]
  EC50: 71.2 µM (active)
Streptokinase A
  EC50: > 150 µM (not active)

## Cc1cscc(C)c1=S
[8]
  IC50: > 66 µM (inactive)
[9]
  IC50: > 66 µM (inactive)

## CC(C)CC(=O)/N=C1\SC2CS(=O)(=O)CC2N1Cc1ccccc1 (stereo not drawn)
[6]
  EC50: 41.1 µM (active)
[7]
  EC50: 75.3 µM (active)

## Oc1ccc(Cc2nccc3cc(O)c(O)cc23)cc1O [PAPAVEROLINE]
Cytochrome P450 1A2
  AC50: 5.01 µM (inconclusive)
Cytochrome P450 2C9
  AC50: inconclusive
